Experimental data as given in paper PMC7828518 (2021).

What was measured:
[1] = system: F10T (DNA, hairpin, Sp18 linker joins 3' end of first TATAGCTATA to 5' end of second (one molecule)) TATAGCTATA/TATAGCTATA; assay: FRET DNA melting; settings: Li+ (100 mM LiCl) per methods; Figure 3 legend: 10 mM KCl, 90 mM LiCl; 10 mM lithium cacodylate pH 7.3; up to 10 μM compound, 0.2 μM DNA
[2] = system: ds17 (DNA, duplex) GGGTTACTACGAACTGG/CCAGTTCGTAGTAACCC; assay: equilibrium dialysis (noncompetition); settings: K+ (100 mM KCl, 10 mM potassium phosphate), pH 7.2, 22 °C, apparent, per base pair (75 μM monomeric units), 2 μM compound
[3] = system: Tel22 (DNA, G4) AGGGTTAGGGTTAGGGTTAGGG; assay: equilibrium dialysis (noncompetition); settings: K+ (100 mM KCl, 10 mM potassium phosphate); pH 7.2, 22 °C; apparent; per tetrad (75 μM monomeric units); 2 μM compound; per base
[4] = system: F21T (DNA, G4) GGGTTAGGGTTAGGGTTAGGG; assay: FRET DNA melting; settings: K+ (10 mM KCl), Li+ (90 mM LiCl); 10 mM lithium cacodylate pH 7.3; 5 μM compound, 0.2 μM DNA
[5] = system: Tel22 (DNA, G4) AGGGTTAGGGTTAGGGTTAGGG; assay: circular dichroism titration; settings: K+ (10 mM KCl), Li+ (90 mM LiCl); 10 mM lithium cacodylate pH 7.3, 25 °C; 4 μM DNA, ratios 1:1 to 1:5

- ∆Tm [1]: ~ 0 °C
- Kapp [2]: 0.029 ± 0.004 × 10^6 M^-1
- Kapp [3]: 2.3 ± 0.5 × 10^6 M^-1
- ∆Tm [4]: 7 ± 1 °C
- binding [5]: yes
Compound: N=C(N)N/N=C/c1ccc2ccc3ccc(/C=N/NC(=N)N)nc3c2n1
